Results reported in patent US6703388B2, “Nitrogen-containing tricyclic compounds and drugs containing the same” (Eisai Co., Ltd., priority 1996, dated 2004).
Read-outs that look alike come from different tables or passages of the source.

How the values were obtained:
[1] = tested on: RBL-2H3 cells; assay: Inhibition of serotonin liberation from IgE-sensitized RBL-2H3 cells after antigen stimulation; assay type: cell-based, rat
From the text: IgE-sensitized RBL-2H3 cells (i.e., a cell line originating in rat cells) release and produce not only histamine and serotonin but also cytokines such as TNF α and prostaglandins which are inflammatory mediators after stimulation with IgE sepecific antibody. In this experimental system, inhibitory effects on various mediators release were examined by using serotonin as an indication.
The cells were beforehand labeled with [^3H]-labeled serotonin and, at the same time, sensitized with the IgE antibody. After incubating with the compounds of the present invention, the cells were stimulated with the specific antigen. Then the inhibitory activity of each compound was calculated from the amount of the [^3H]-labeled serotonin thus liberated into the medium and the amount of [^3H]-labeled serotonin liberated when no compound of the present invention was added.

[2] = tested on: human basophils; assay: Inhibition of mediator (histamine, peptide leukotriene) liberation from human basophils stimulated with mite antigen; assay type: cell-based; conditions: enzyme immunoassay
Protocol: 6 ml of 6% dextran (for separating leukocytes, having a high molecular weight) was added to 20 ml of heparinized blood. After stirring well, the resulting mixture was allowed to stand at 37° C. for 30 min and thus erythrocytes were precipitated. The upper layer was taken up and phosphate buffered saline (D-PBS) was added thereto followed by centrifugation at 185 g for 8 minutes to give a crude leukocyte fraction. These cells were subjected to hypotonic hematolysis and then suspended in D-PBS(+) containing 0.1%-BSA. The resulting suspension was used in the subsequent experiment as the leukocyte fraction containing basophils. 0.4 ml of this cell suspension was preliminarily heated to 37° C. for 5 min and then 0.05 ml of a specimen solution was added thereto followed by a pretreatment at 37° C. for 15 min. Next, 0.05 ml of a mite antigen solution was added thereto to induce an antigen-antibody reaction. After 10 min, the reaction was ceased by ice-cooling. Then the reaction mixture was centrifuged at 185 g for 10 min and histamine and peptide leukotrienes in the resulting supernatant were determined by using enzyme immunoassay kits. From the results of the assay, the activities of the acridone derivatives of inhibiting the liberation of histamine and peptide leukotriene were determined.

[3] = Rattus norvegicus, [3H]-serotonin release, IgE-sensitized RBL-2H3 cells, antigen stimulation, read-out: IC50 (μM) in serotonin liberation from RBL-2H3 cells
[4] = histamine, read-out: IC50 (μM) in mediator liberation from human basophils: histamine
[5] = peptide leukotriene, read-out: IC50 (μM) in mediator liberation from human basophils: leukotriene
[6] = Rattus norvegicus, RBL-2H3, read-out: IC50 (μM) in serotonin liberation from RBL-2H3 cells

SMILES	IC50 [1, 3]	IC50 [2, 4]	IC50 [2, 5]	other results
Cc1ccc2c(c1C)N(CCCNCc1ccccc1O)c1ccccc1[S+]2[O-] (stereo not drawn) [Example 23]	2 µM	10 to 30 µM	10 to 30 µM	–
Cc1ccc2c(c1C)N(CCCNCc1cccc(O)c1)c1ccccc1[S+]2[O-] (stereo not drawn) [Example 24]	3 µM	10 to 30 µM	10 to 30 µM	–
Cc1ccc2c(c1C)N(CCCNCc1ccc(O)cc1)c1ccccc1[S+]2[O-] (stereo not drawn) [Example 25]	3 µM	30 µM	10 to 30 µM	–
Cc1ccc2c(c1C)N(CCCNCc1cccc(C)c1O)c1ccccc1[S+]2[O-] (stereo not drawn) [Example 26]	2 µM	< 10 µM	< 10 µM	–
COc1cccc(CNCCCN2c3ccccc3[S+]([O-])c3ccc(C)c(C)c32)c1O (stereo not drawn) [Example 27]	3 µM	30 to 100 µM	10 to 30 µM	–
Cc1ccc2c(c1C)N(CCCNCc1cccc(OC(C)C)c1O)c1ccccc1[S+]2[O-] (stereo not drawn) [Example 28]	0.8 µM	10 to 30 µM	3 µM	–
Cc1ccc2c(c1C)N(CCCNCc1cccc(Cl)c1O)c1ccccc1[S+]2[O-] (stereo not drawn) [Example 29]	0.8 µM	10 to 30 µM	3 to 10 µM	–
Cc1ccc2c(c1C)N(CCCNCc1cccc(Br)c1O)c1ccccc1[S+]2[O-] (stereo not drawn) [Example 30]	2 µM	3 to 10 µM	< 3 µM	–
Cc1ccc2c(c1C)N(CCCNCc1ccc(O)c(C(=O)O)c1)c1ccccc1[S+]2[O-] (stereo not drawn) [Example 32]	0.5 µM	30 to 100 µM	10 to 30 µM	–
Cc1ccc2c(c1C)N(CCCNCc1cc(O)ccc1O)c1ccccc1[S+]2[O-] (stereo not drawn) [Example 33]	1 µM	10 to 30 µM	10 µM	–
Cc1ccc2c(c1C)N(CCCNCc1cc(Cl)cc(Cl)c1O)c1ccccc1[S+]2[O-] (stereo not drawn) [Example 34]	2 µM	3 to 10 µM	3 µM	–
COCc1cccc(CNCCCN2c3ccccc3[S+]([O-])c3ccc(C)c(C)c32)c1O (stereo not drawn) [Example 35]	1 µM	3 µM	3 to 10 µM	–
Cc1ccc2c(c1C)N(CCCNCc1c(O)cccc1O)c1ccccc1[S+]2[O-] (stereo not drawn) [Example 36]	1 µM	3 to 10 µM	3 to 10 µM	–
Cc1ccc2c(c1C)N(CCCNCc1c(O)ccc(C)c1O)c1ccccc1[S+]2[O-] (stereo not drawn) [Example 37]	2 µM	10 to 30 µM	3 to 10 µM	–
COc1cc(C)c(O)c(CNCCCN2c3ccccc3[S+]([O-])c3ccc(C)c(C)c32)c1O (stereo not drawn) [Example 39]	2 µM	10 to 30 µM	10 to 30 µM	–
Cc1ccc2c(c1C)N(CCCNCc1cccc(F)c1O)c1ccccc1[S+]2[O-] (stereo not drawn) [Example 42]	2 µM	3 to 10 µM	< 3 µM	–
COCOc1ccccc1CNCCCN1c2ccccc2[S+]([O-])c2ccc(C)c(C)c21 (stereo not drawn) [Example 44]	1 µM	10 to 30 µM	10 µM	–
COc1cccc(OC)c1CNCCCN1c2ccccc2[S+]([O-])c2ccc(C)c(C)c21 (stereo not drawn) [Example 45]	1 µM	3 to 10 µM	3 µM	–
Cc1ccc2c(c1C)N(CCCNCc1ccccc1OCCO)c1ccccc1[S+]2[O-] (stereo not drawn) [Example 46]	0.5 µM	10 to 30 µM	10 to 30 µM	–
COCOc1c(CNCCCN2c3ccccc3[S+]([O-])c3ccc(C)c(C)c32)cccc1OC(C)C (stereo not drawn) [Example 47]	0.5 µM	3 to 10 µM	3 µM	–
COCOc1c(Cl)cccc1CNCCCN1c2ccccc2[S+]([O-])c2ccc(C)c(C)c21 (stereo not drawn) [Example 48]	0.3 µM	3 to 10 µM	3 µM	–

SMILES	IC50 [1, 3]	IC50 [2, 4]	IC50 [2, 5]	other results
Cc1ccc2c(c1C)N(CCCNCc1cccc(N(C)C)c1)c1ccccc1[S+]2[O-] (stereo not drawn) [Example 49]	2 µM	10 µM	3 to 10 µM	–
Cc1ccc2c(c1C)N(CCCN(C)Cc1ccccc1O)c1cc(Cl)ccc1[S+]2[O-] (stereo not drawn) [Example 186]	10 µM	–	–	–
Cc1ccc2c(c1C)N(CCN1CCN(Cc3ccccc3)CC1)c1ccccc1[S+]2[O-] (stereo not drawn) [Example 191, 1,2-Dimethyl-10-[2-(4-benzylpiperazin-1-yl)ethyl]-phenothiazine-5-oxide]	3 µM	–	–	–
Cc1ccc2c(c1C)N(CCN1CCC(O)(c3ccccc3)CC1)c1ccccc1[S+]2[O-] (stereo not drawn) [Example 192]	–	–	–	IC50 [1, 6]: 5 µM
Cc1ccc2c(c1C)N(CCNc1ccccc1O)c1ccccc1[S+]2[O-] (stereo not drawn) [Example 194]	10 µM	–	–	–
Cc1ccc2c(c1C)N(CCCN)c1cc(Br)ccc1S2(=O)=O [Example 197]	8 µM	–	–	–
Cc1ccc2c(c1C)N(CCN1CCC(O)(c3ccccc3)CC1)c1ccccc1S2(=O)=O [Example 199]	–	–	–	IC50 [1, 6]: 10 µM
C=C1c2ccccc2N(CCCNCc2ccccc2)c2c1ccc(C)c2C [Example 206, 3,4-Dimethyl-9-methylene-10-(3-benzylaminopropyl)acridan]	15 µM	–	–	–
CCC/C=C1/c2ccccc2N(CCCNCc2ccccc2)c2c1ccc(C)c2C [Example 207]	15 µM	–	–	–
CO/N=c1\c2ccccc2n(CCCN)c2c(C)c(C)ccc12 [Example 208, (E,Z)-3,4-Dimethyl-10-(3-aminopropyl)-9-acridoneoxime-O-methyl Ether]	–	–	–	IC50 ([1]; [3H]-serotonin release, IgE-sensitized RBL-2H3 cells, antigen stimulation, read-out: IC50 (μM) in serotonin liberation from RBL-2H3 cells): 3 µM
Cc1ccc2c(=NO)c3ccccc3n(CCCN)c2c1C [Example 209]	15 µM	–	–	–
CCCON=c1c2ccccc2n(CCCN)c2c(C)c(C)ccc12 [Example 211]	10 µM	–	–	–
Cc1ccc2c(=NOCCc3ccccn3)c3ccccc3n(CCCN)c2c1C [Example 212]	6 µM	–	–	–
Cc1ccc2c(=NOCC(=O)O)c3ccccc3n(CCCN)c2c1C [Example 215]	3 µM	–	–	–
Cc1ccc2c(=NOCCC(=O)O)c3ccccc3n(CCCN)c2c1C [Example 216]	3 µM	–	–	–
Cc1ccc2c(=NOC(C)C(=O)O)c3ccccc3n(CCCN)c2c1C (stereo not drawn) [Example 217]	2 µM	–	–	–
Cc1ccc2c(=NOCc3ccccn3)c3ccccc3n(CCCN)c2c1C [Example 220]	6 µM	–	–	–
Cc1ccc2c(=NOCCCC(=O)N(C)C)c3ccccc3n(CCCN)c2c1C [Example 222]	10 µM	–	–	–
Cc1ccc2c(=NOC(C)C)c3ccccc3n(CCCN)c2c1C [Example 223]	10 µM	–	–	–
Cc1ccc2c(=NO)c3ccccc3n(CCCNCc3ccccc3)c2c1C [Example 230]	6 µM	–	–	–
CCCON=c1c2ccccc2n(CCCNCc2ccccc2)c2c(C)c(C)ccc12 [Example 232]	10 µM	–	–	–

SMILES	IC50 [1, 3]	IC50 [2, 4]	IC50 [2, 5]	other results
Cc1ccc2c(=NOCC(=O)O)c3ccccc3n(CCCNCc3ccccc3)c2c1C [Example 234]	< 3 µM	–	–	–
CCC(ON=c1c2ccccc2n(CCCNCc2ccccc2)c2c(C)c(C)ccc12)C(=O)O (stereo not drawn) [Example 237]	10 µM	–	–	–
Cc1ccc2c(=NOCc3ccccn3)c3ccccc3n(CCCNCc3ccccc3)c2c1C [Example 240]	5 µM	–	–	–
Cc1ccc2c(=NOCCc3ccccn3)c3ccccc3n(CCCNCc3ccccc3)c2c1C [Example 241]	4 µM	–	–	–
Cc1ccc2c(=NOCCCC(=O)O)c3ccccc3n(CCCNCc3ccccc3)c2c1C [Example 242]	6 µM	–	–	–
Cc1ccc2c(=NOC(C)C)c3ccccc3n(CCCNCc3ccccc3)c2c1C [Example 243]	6 µM	–	–	–
Cc1ccc2c(=NOCCC(=O)N(C)C)c3ccccc3n(CCCNCc3ccccc3)c2c1C [Example 244]	3 µM	–	–	–
Cc1ccc2c(=NOCCC(=O)O)c3ccccc3n(CCCNCc3ccccc3O)c2c1C [Example 247]	10 µM	–	–	–
Cc1ccc2c(=NOCC(C)(C)C(=O)O)c3ccccc3n(CCCNCc3ccccc3)c2c1C [Example 248]	10 µM	–	–	–
Cc1ccccc1CNCCCn1c2ccccc2c(=NOCCC(=O)O)c2ccc(C)c(C)c21 [Example 249]	10 µM	–	–	–
Cc1ccc2c(=NOCCC(N)=O)c3ccccc3n(CCCNCc3ccccc3)c2c1C [Example 251]	5 µM	–	–	–
Cc1ccc2c(=NOC(C)C#N)c3ccccc3n(CCCNCc3ccccc3)c2c1C (stereo not drawn) [Example 253]	10 µM	–	–	–
Cc1ccc2c(=NOCCC(=O)O)c3ccccc3n(CCCN(C)Cc3ccccc3)c2c1C [Example 254]	12 µM	–	–	–
CCON=c1c2ccccc2n(CCCNC(C)c2ccccc2)c2c(C)c(C)ccc12 (stereo not drawn) [Example 255]	8 µM	–	–	–
Cc1ccc2c(c1C)N(CCCN)c1ccccc1N(C)C2=O [Example 257]	12 µM	–	–	–
Cc1ccc2c(c1C)N(CCCN)c1ccccc1C(=O)N2C [Example 258]	6 µM	–	–	–
Cc1ccc2c(c1C)N(CCCNCc1ccccc1)c1ccccc1N(C)C2=O [Example 259]	4 µM	–	–	–
Cc1ccc2c(c1C)N(CCCNCc1ccccc1)c1ccccc1C(=O)N2C [Example 260]	6 µM	–	–	–
COC(=O)Cc1cccc2c1[S+]([O-])c1ccc(C)c(C)c1N2CCCNCc1ccccc1 (stereo not drawn) [Example 261]	10 µM	–	–	–
